Columns and labels:
Density of dye solutions = format: physicochemical
Description: (§1) Density and viscosity can be changed by the addition of diglycerol or a gadolinium complex or a combination of both. For sinking of the dye solution to the bottom of the eye, density is more important than viscosity; the latter reduces, however, possible mixing for solutions which sink slowly. The density of dye solutions can be increased from 1.003 grams per milliliter (at 25° C.) to 1.028, when 10 volume % of a 0.5 M solution of gadopentetate is added to a final concentration of gadopentetate of 0.05 M, and to 1.048 when 20 volume % of a 0.5 M solution of gadopentetate is added to a final concentration of 0.10 M. The resulting viscosities are 1.125 mPa·s and 1.258 mPa·s, respectively. For a 5% addition of named gadopentetate solution, a density of 1.016 gram per milliliter and a viscosity of 1.117 mPa·s is obtained.

[1] = Viscosity of dye solutions; format: physicochemical
Description: as §1

[2] = Osmotic pressure contribution of density-increasing agent; format: physicochemical; details: in words
retina = experiment: Staining of porcine retina with dye preparations, contrast quantified from photographs; details: in words; compared with prior art agents like PEG
Excerpt: The eyes were kept on ice until used.
The upper part of the eye, including the cornea, iris, and lens, was removed with an orbital section. The vitreous body was removed to get access to the retina. The retina was rinsed three times with phosphate-buffered saline (PBS). Dye solutions were applied to the retina for 30 seconds, and the retina was then washed three times with PBS.
As an example of the visual impression of the stained retina, photos were taken. For photographic recording of the result of the staining, the staining was limited by applying a glass tube of a diameter of 10 mm. Care was taken that no dye could reach the cellular layer of the retina. […]
As an example of quantification, the pictures in FIGS. 1A-J were quantified by measuring the optical densities (expressed as grey values on a scale from 0 (black) to 255 (white)) of a rectangular area within the stained portion of the retina and a rectangular area outside the stained portion as background (ensuring that no blood vessels where present in the rectangular areas), and calculating the ratio of the grey values of the background to that of the stain. […] Toxicity was measured in ARPE cells. […] Toxicity is expressed as percent reduction of cell viability in comparison to a control incubated with PBS instead of the dye solution.

[3] = 10 volume % of 0.5 M solution added, final concentration 0.05 M
[4] = 20 volume % of 0.5 M solution added, final concentration 0.10 M

Row | SMILES | density (Density of dye solutions; 5% addition of 0.5 M solution) | density (Density of dye solutions; [3]) | density (Density of dye solutions; [4]) | viscosity ([1]; 5% addition of 0.5 M solution) | viscosity [1, 3] | viscosity [1, 4] | osmotic pressure / osmotic activity [2] | density (Density of dye solutions; addition of 5 weight percent) | effect of density agent on staining efficiency (retina) | osmotic pressure / osmotic activity ([2]; listed as DG) | viscosity ([1]; addition of 5 weight percent)
1 | O=C([O-])CN(CCN(CC(=O)[O-])CC(=O)O)CCN(CC(=O)[O-])CC(=O)O.[Gd+3] [gadopentetate] | 1.016 gram per milliliter | 1.028 grams per milliliter | 1.048 grams per milliliter | 1.117 mPa·s | 1.125 mPa·s | 1.258 mPa·s | – | – | – | – | –
2 | OCC(O)COCC(O)COCC(O)CO (stereo not drawn) [triglycerol] | – | – | – | – | – | – | without increasing osmotic pressure substantially | – | – | – | –
3 | OCC(O)COCC(O)CO (stereo not drawn) [diglycerol] | – | – | – | – | – | – | without increasing osmotic pressure substantially | 1.020 grams per milliliter | does not decrease staining efficiency | not even osmotically active | 1.191 mPa·s

— patent publication US20250018066A1, “Ophthalmic dye composition” (Vitreq B.V., priority 2016, published 2025)
